Columns and labels:
[1] = test system: LTB4 biosynthesis in human PMNL; experiment: Inhibition of calcium ionophore A23187-induced LTB4 biosynthesis in human polymorphonuclear leukocytes (PMNL); type: cell-based; conditions: human PMNL (5×10^6 cells/250 μL), 15 min preincubation at 37° C., A23187 8.3 μM, 10 min, LTB4 by HPLC
Protocol: Inhibition of leukotriene biosynthesis was evaluated in assays, involving calcium ionophore-induced LTB4 biosynthesis expressed by human polymorphonuclear leukocytes (PMNL) or human whole blood. Human PMNL were isolated from heparinized (20 USP units/mL) venous blood using Ficoll-Hypaque Mono-Poly Resolving Medium. Human PMNL suspensions (5×10^6 cells/250 μL) were preincubated with test compounds or vehicle for 15 min at 37° C. followed by calcium ionophore A23187 challenge (final concentration of 8.3 μM) and the reaction terminated after 10 min by adding two volumes of methanol containing prostaglandin B2 as an internal recovery standard. The methanol extracts were analyzed for LTB4 content by HPLC.

[2] = test system: LTB4 biosynthesis in human whole blood; experiment: Inhibition of calcium ionophore A23187-induced LTB4 biosynthesis in human whole blood; type: cell-based; conditions: 0.5 h; human heparinized whole blood, A23187 50 μM, 30 minutes at 37° C., LTB4 by radioimmunoassay
Protocol: The assay using human heparinized whole blood was incubated for 30 minutes at 37° C. after adding 50 μM of ionophore A23187. The plasma layer was obtained by centrifugation and deproteinized by the addition of four volumes of methanol. The methanol extract was analyzed for LTB4 using a commercially available radioimmunoassay.

leukotriene biosynthesis = experiment: Inhibition of leukotriene biosynthesis in vivo, rat peritoneal anaphylaxis model, oral administration; conditions: for percent inhibition of leukotriene biosynthesis: oral dose of 30 μmol/kg, gavage one hour prior to antigen challenge
Protocol: Inhibition of the biosynthesis of leukotrienes in vivo after oral administration of compound was determined using a rat peritoneal anaphylaxis model in a similar manner as that described by Young and coworkers (Young, P. R.; Dyer, R. D.; Carter, G. W. Fed. Proc., Fed. Am. Soc. Exp. Biol. 1985, 44, 1185). In this model rats were injected intraperitoneally (ip) with rabbit antibody to bovine serum albumin (BSA) and three hours later injected ip with BSA to induce an antigen-antibody response. Rats were sacrificed 15 minutes after this challenge and the peritoneal fluids were collected and analyzed for leukotriene levels. Test compounds were administered by gavage one hour prior to the antigen challenge. Percent inhibition values were determined by comparing the treatment group to the mean of the control group. […] Compounds 5, 8, and 9 inhibit>50% leukotriene biosynthesis with an oral dose of 30 μmol/kg.

SMILES	IC50 [1] [nM]	IC50 [2] [nM]	percent inhibition of leukotriene biosynthesis (leukotriene biosynthesis) [%]	ED50 (leukotriene biosynthesis; 1 h, po (gavage) one hour prior to antigen challenge, read-out: inhibits leukotriene biosynthesis, ED50) [mg/kg]
CC(C)(C)Sc1c(CC(C)(C)C(=O)O)n(Cc2ccc(Cl)cc2)c2ccc(OCc3ccncc3)cc12 [Example 2, 3-[1-(4-chlorobenzyl)-3-(1,1-dimethylethylthio)-5-(pyrid-4-ylmethoxy)-indol-2-yl]-2,2-dimethylpropionic acid]	< 100	840		
CC(C)(C)Sc1c(CC(C)(C)C(=O)O)n(Cc2ccc(Cl)cc2)c2ccc(OCc3ccc4ccccc4c3)cc12 [Example 4, 3-[1-(4-chlorobenzyl)-3-(1,1-dimethylethylthio)-5-(napth-2-ylmethoxy)indol-2-yl]-2,2-dimethylpropionic acid]	12	4420		
CC(C)(C)Sc1c(CC(C)(C)C(=O)O)n(Cc2ccc(Cl)cc2)c2ccc(OCc3ccc(Cl)s3)cc12 [Example 6, 3-[1-(4-chlorobenzyl)-5-(5-chlorothien-2-ylmethoxy)-3-(1,1-dimethylethylthio)indol-2-yl]-2,2-dimethylpropionic acid]	< 800	3200		
CC(C)(C)Sc1c(CC(C)(C)C(=O)O)n(Cc2ccc(Cl)cc2)c2ccc(Oc3ccccn3)cc12 [Example 5, 3-[1-(4-chlorobenzyl)-3-(1,1-dimethylethylthio)-5-(pyrid-2-yloxy)indol-2-yl]-2,2-dimethylpropionic acid]	15	2470	> 50	
CC(C)(C)Sc1c(CC(C)(C)C(=O)O)n(Cc2ccc(Cl)cc2)c2ccc(OCc3ccccn3)cc12 [Example 3, 3-[1-(4-chlorobenzyl)-3-(1,1-dimethylethylthio)-5-(pyrid-2-ylmethoxy)indol-2-yl]-2,2-dimethylpropionic acid]	< 50	50		0.1
CC(C)(C)Sc1c(CC(C)(C)C(=O)O)n(Cc2ccc(Cl)cc2)c2ccc(OCc3cccc(Cl)n3)cc12 [Example 8, 3-[1-(4-chlorobenzyl)-5-(6-chloropyrid-2-ylmethoxy)-3-(1,1-dimethylethylthio)indol-2-yl]-2,2-dimethylpropionic acid]	17	110	> 50	
Cc1cc(C)nc(COc2ccc3c(c2)c(SC(C)(C)C)c(CC(C)(C)C(=O)O)n3Cc2ccc(Cl)cc2)n1 [Example 7, 3-[1-(4-chlorobenzyl)-3-(1,1-dimethylethylthio)-5-(4,6-dimethylpyrimid-2-ylmethoxy)indol-2-yl]-2,2-dimethylpropionic acid]	30	1600		
CC(C)(C)Sc1c(CC(C)(C)C(=O)O)n(Cc2ccc(Cl)cc2)c2ccc(OCc3cccs3)cc12 [Example 10, 3-[1-(4-chlorobenzyl)-3-(1,1-dimethylethylthio)-5-(thien-2-ylmethoxy)indol-2-yl]-2,2-dimethylpropionic acid]	7	1400		
CC(C)(C)Sc1c(CC(C)(C)C(=O)O)n(Cc2ccc(Cl)cc2)c2ccc(OCc3cccnc3)cc12 [Example 1, 3-[1-(4-chlorobenzyl)-3-(1,1-dimethylethylthio)-5-(pyrid-3-ylmethoxy)-indol-2-yl]-2,2-dimethylpropionic acid]	17	1090		
CC(C)(C)Sc1c(CC(C)(C)C(=O)O)n(Cc2ccc(Cl)cc2)c2ccc(OCc3cscn3)cc12 [Example 9, 3-[1-(4-chlorobenzyl)-3-(1,1-dimethylethylthio)-5-(thiazol-4-ylmethoxy)indol-2-yl]-2,2-dimethylpropionic acid]	4.4	40	> 50	
